The values that follow come from PubChem BioAssay (NCI).

Common to all, as to test: NCI anticancer screen, dose series, 48 h
Assay [1] relates to HOP-92 NSCLC.
In assay [2] the test system is COLO 205 colon.
For assay [3], the system named is LOX IMVI melanoma.
Assay [4] concerns SK-OV-3 ovarian.
Assay [5] deals with SNB-75 CNS.
For assay [6], the system named is SR leukemia.
Assay [7] deals with HL-60(TB) leukemia.
The subject of assay [8] is OVCAR-8 ovarian.
In assay [9] the test system is CAKI-1 renal.
Assay [10] deals with SF-295 CNS.

Molecules are shown by their SMILES.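 Cultured in 96-well plates, cells were exposed to test compound for 48 hours across five concentrations. GI50 marks 50% less growth. At the TGI there is no net growth.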 Where only a bound is given, the exact number is not on record here.

Consider `CC(=O)OC1C(=O)C(O)C(C)OC1O[C@@H]1C[C@@]2(C)[C@@H]3CC=C4[C@@H](C[C@H](O)C(=O)C4(C)C)[C@]3(C)C(=O)C[C@]2(C)[C@H]1[C@@](C)(O)C(=O)/C=C/C(C)(C)O` (stereo partly drawn), for which the TGI in [1] was 2.52 µM; in assay [2], more than 6.77 µM; in assay [3], 2.76 µM; in assay [4] it was more than 9.33 µM; in assay [5], 1.47 µM; in assay [6], more than 10 µM. For the same compound, the TGI in assay [7] is 7.1 µM; in [8], more than 10 µM; in assay [9], 2.98 µM; in [10], 7.19 µM.
Take `C=C1[C@@H](C)[C@H]2[C@H](Cc3ccccc3)NC(=O)[C@]23OC(=O)/C=C/[C@H](O)CCC[C@@H](C)C/C=C/[C@H]3[C@@H]1O`: the TGI in assay [1] was 4.23 µM; in assay [2], more than 100 µM; in assay [3], 39.6 µM; in [4], more than 100 µM; in [5] it was 1.3 µM; in assay [6], more than 100 µM. The TGI in assay [7] came out at 90 µM; in assay [8], 66.4 µM; in [9], 4.51 µM; in [10] it was 53.5 µM.
On to `Clc1ccc(Cl)c2[s+]snc12`, for which the TGI in assay [1] is more than 100 µM; in assay [2] it was more than 60.1 µM; in assay [3], more than 100 µM; in [4], more than 100 µM; in assay [5], more than 100 µM; in assay [6] it was more than 100 µM. For the same compound, the TGI in assay [7], in [8], in assay [9] and in assay [10] was more than 100 µM each time.
For the compound `C(=N\Nc1ccccn1)/c1ccccn1`, the TGI in [1] was more than 82.7 µM; in assay [2], more than 100 µM; in assay [3] it was more than 100 µM; in assay [5] it was more than 93.4 µM; in assay [6] it was more than 100 µM; in assay [7], 2.53 µM. Moreover, the TGI in [8] is more than 100 µM; in [9], more than 50.7 µM; in [10], more than 41.3 µM. Moreover, the GI50 in assay [2] is 0.356 µM; in assay [3], 0.319 µM; in assay [4] it was 0.393 µM; in assay [5], 0.665 µM; in [6] it was 0.367 µM; in assay [7], 0.272 µM. Further, the GI50 is 0.411 µM in [8], 0.257 µM in assay [9] and 0.359 µM in [10].
Turning to `CCN(Cc1cccc(OC)c1)c1ccc(CO)c(Cl)c1`, the GI50 is 2.11 µM in [1]; 1.02 µM in assay [2]; 14.5 µM in assay [3]; 8.52 µM in assay [4]; 16.3 µM in assay [5]; 22.9 µM in assay [6]. Also, the GI50 in assay [7] was 14.6 µM; in [8], 12.6 µM; in [9], 0.901 µM; in [10] it was 0.889 µM. In addition, the TGI in assay [1] came to 20.5 µM; in [2], 4.35 µM; in assay [3] it was 27.9 µM; in [4] it was 33.6 µM; in assay [5], 62 µM; in assay [6], 66.4 µM. For the same compound, the TGI in [7] was 51.7 µM; in assay [8], 45.7 µM; in assay [9], 35.3 µM; in [10] it was 22 µM.
On to `Cc1ccc(C(CN(C)C)C(=O)c2ccccc2)cc1` (stereo not drawn), for which the GI50 in [1] is 2.07 µM; in [2], 2.2 µM; in assay [3] it was 1.01 µM; in assay [4], 14.7 µM; in assay [5] it was 2.58 µM; in assay [6] it was 1.03 µM. Moreover, the GI50 is 2.19 µM in [7], 3.13 µM in [8], 2.64 µM in assay [9] and 5.09 µM in assay [10]. For the same compound, the TGI in assay [1] is 5.38 µM; in [2], 4.91 µM; in assay [3], 2.27 µM; in assay [4], 31.3 µM; in [5] it was 14.8 µM; in assay [6] it was 6.47 µM. The TGI in [7] was found to be 5.24 µM; in assay [8] it was 11.3 µM; in assay [9], 7.97 µM; in assay [10] it was 18.2 µM.
For `Cc1ccc(C(=O)Nc2ccc(CN3CCN(C)CC3)c(C(F)(F)F)c2)cc1C#Cc1cnc(N)cc1C#N`, the GI50 in [1] was 0.0496 µM; in [2], 0.0901 µM; in assay [3], 0.0394 µM; in assay [4] it was 0.186 µM; in assay [5] it was 0.112 µM; in [6] it was 0.162 µM. The GI50 in [7] is 0.233 µM; in assay [8], 0.224 µM; in assay [9] it was 0.0828 µM; in [10], 0.315 µM. In addition, the TGI in assay [1] came to 0.566 µM; in assay [2], 0.714 µM; in assay [3], 0.522 µM; in assay [4] it was 2.5 µM; in assay [5], 0.798 µM; in assay [6], 1.23 µM. Moreover, the TGI came out at 1.08 µM in assay [7], 1.15 µM in assay [8], 0.538 µM in [9] and 1.16 µM in [10].
For `O=C(O)C(=Cc1ccnc2ccccc12)C(=O)O`, the TGI in assay [1], in [2], in [3], in assay [4], in assay [5] and in assay [6] was more than 100 µM each time. The TGI in assay [7], in assay [8], in [9] and in [10] was more than 100 µM in each case.
Consider `CC(C)N(C(=O)C12C3C4C5(C#N)C3C1(I)C5C42I)C(C)C` (stereo not drawn), for which the TGI in assay [1] is more than 100 µM; in [2], more than 58.9 µM; in assay [3], more than 66.1 µM; in assay [4], more than 100 µM; in assay [5], more than 100 µM; in assay [6], more than 100 µM. In addition, the TGI is more than 63.6 µM in [7], more than 100 µM in assay [8], more than 100 µM in assay [9] and more than 100 µM in [10].
As to `N#Cc1c(C(=O)c2ccccc2)cnn1-c1ccccc1`, the GI50 in assay [1], in [2], in assay [3], in [4], in assay [5] and in [6] was more than 25 µM each time. For the same compound, the GI50 in assay [7], in assay [8], in assay [9] and in assay [10] was more than 25 µM in each case. Moreover, the TGI in assay [1], in assay [2], in assay [3], in assay [4], in assay [5] and in [6] was more than 25 µM in each case. Further, the TGI in assay [7], in assay [8], in [9] and in assay [10] was more than 25 µM in each case.
Take `O=C1C(Cl)=C(Cl)C(=O)N1C1C2CC3CC(C2)CC1C3` (stereo not drawn): the TGI in [1], in assay [2], in [3], in [4], in assay [5] and in assay [6] was more than 100 µM in each case. Moreover, the TGI in assay [7] is 79.4 µM; in [8] it was more than 100 µM; in assay [9], more than 66.9 µM; in assay [10] it was more than 100 µM.
On to `C/C(O)=C(\N=O)C(=O)NCCc1ccccc1`, for which the TGI in assay [1] was more than 100 µM; in assay [2] it was more than 66.9 µM; in assay [3], more than 58 µM; in assay [4], more than 100 µM; in [5], more than 100 µM; in assay [6], more than 100 µM. In addition, the TGI in assay [7], in assay [8], in assay [9] and in [10] was more than 100 µM throughout.
As to `CC1=C(/C=C/C(C)=C\C=C\C(C)=C\C(=O)Nc2ccc3c(c2)OCO3)C(C)(C)CCC1`, the GI50 in assay [1] was 35.8 µM; in assay [2] it was 37.8 µM; in assay [3], 16.8 µM; in assay [4], more than 100 µM; in assay [5], 7.41 µM; in [6] it was 11.3 µM. In addition, the GI50 in assay [7] was 1.65 µM; in assay [8] it was 93.1 µM; in assay [9] it was more than 100 µM; in assay [10], 31 µM. Moreover, the TGI in assay [1] is more than 100 µM; in assay [2], more than 100 µM; in [3] it was more than 100 µM; in [4], more than 100 µM; in assay [5] it was more than 100 µM; in assay [6] it was 47.7 µM. Besides, the TGI is 18 µM in assay [7], more than 100 µM in assay [8], more than 100 µM in [9] and more than 100 µM in assay [10].
Take `Nc1ccccc1C#C/C=C\C#Cc1ccccc1C(F)(F)F`: the GI50 is 21.5 µM in assay [1]; 1.92 µM in [2]; 0.441 µM in [3]; 0.888 µM in [4]; 0.0869 µM in [5]; 0.247 µM in assay [6]. Further, the GI50 is 1.04 µM in assay [7], 1.32 µM in assay [8], 1.1 µM in assay [9] and 0.958 µM in assay [10]. The TGI in assay [1] was 48 µM; in assay [2] it was more than 37.2 µM; in [3], 11.5 µM; in assay [4], 24.7 µM; in [5], 18.8 µM; in assay [6], 0.691 µM. The TGI in assay [7] was more than 27.7 µM; in assay [8], 20.6 µM; in assay [9] it was 10.1 µM; in assay [10], 3.62 µM.
